Structures are written as SMILES. Active and inactive are the calls of the source. For most assays here, no stated cut-off is given here; in the data, actives have a measured Kd and inactives only a lower limit.

The target in one test is Adenosine kinase (Homo sapiens, UniProt P55263).
The target in test [1] is Mitotic checkpoint serine/threonine-protein kinase BUB1 (Homo sapiens, UniProt O43683).
The target of test [2] is Cyclin-dependent kinase 17 (Homo sapiens, UniProt Q00537).
For test [3], the target named is Dual specificity protein kinase CLK1 (Homo sapiens, UniProt P49759).
Dual specificity protein kinase CLK1, sequence (P49759 whole entry): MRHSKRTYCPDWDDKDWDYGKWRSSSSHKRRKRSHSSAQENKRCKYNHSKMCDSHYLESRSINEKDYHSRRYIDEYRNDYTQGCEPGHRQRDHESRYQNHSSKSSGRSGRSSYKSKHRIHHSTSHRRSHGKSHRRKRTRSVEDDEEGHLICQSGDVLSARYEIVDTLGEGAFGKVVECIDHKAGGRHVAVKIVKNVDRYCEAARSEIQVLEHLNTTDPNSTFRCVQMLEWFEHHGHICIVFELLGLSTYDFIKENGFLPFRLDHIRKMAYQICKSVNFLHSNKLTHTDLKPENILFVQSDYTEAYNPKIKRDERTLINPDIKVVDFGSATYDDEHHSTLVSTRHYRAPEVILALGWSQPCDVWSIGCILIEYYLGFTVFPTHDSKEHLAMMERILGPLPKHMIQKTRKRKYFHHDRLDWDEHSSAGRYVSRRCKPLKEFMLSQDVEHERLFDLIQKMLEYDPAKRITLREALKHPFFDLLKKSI
The next test has as its target T1, Scaffold protein ILK (Homo sapiens, UniProt Q13418).
T1 sequence (Q13418 whole entry): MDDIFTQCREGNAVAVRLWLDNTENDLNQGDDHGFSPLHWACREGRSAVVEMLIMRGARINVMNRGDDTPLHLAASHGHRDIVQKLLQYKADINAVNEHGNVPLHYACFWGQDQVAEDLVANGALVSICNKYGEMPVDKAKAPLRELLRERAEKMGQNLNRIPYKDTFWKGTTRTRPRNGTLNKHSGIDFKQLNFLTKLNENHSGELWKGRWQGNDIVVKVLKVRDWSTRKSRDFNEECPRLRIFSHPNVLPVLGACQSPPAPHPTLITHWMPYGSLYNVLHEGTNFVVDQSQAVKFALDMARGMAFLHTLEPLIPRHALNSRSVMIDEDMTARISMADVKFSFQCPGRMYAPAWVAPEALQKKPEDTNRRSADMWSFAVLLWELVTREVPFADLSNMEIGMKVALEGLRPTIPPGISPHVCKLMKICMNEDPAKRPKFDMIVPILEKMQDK

The target in test [4] is Mitogen-activated protein kinase kinase kinase kinase 4 (Homo sapiens, UniProt O95819).
Mitogen-activated protein kinase kinase kinase kinase 4, sequence (O95819 whole entry, canonical isoform): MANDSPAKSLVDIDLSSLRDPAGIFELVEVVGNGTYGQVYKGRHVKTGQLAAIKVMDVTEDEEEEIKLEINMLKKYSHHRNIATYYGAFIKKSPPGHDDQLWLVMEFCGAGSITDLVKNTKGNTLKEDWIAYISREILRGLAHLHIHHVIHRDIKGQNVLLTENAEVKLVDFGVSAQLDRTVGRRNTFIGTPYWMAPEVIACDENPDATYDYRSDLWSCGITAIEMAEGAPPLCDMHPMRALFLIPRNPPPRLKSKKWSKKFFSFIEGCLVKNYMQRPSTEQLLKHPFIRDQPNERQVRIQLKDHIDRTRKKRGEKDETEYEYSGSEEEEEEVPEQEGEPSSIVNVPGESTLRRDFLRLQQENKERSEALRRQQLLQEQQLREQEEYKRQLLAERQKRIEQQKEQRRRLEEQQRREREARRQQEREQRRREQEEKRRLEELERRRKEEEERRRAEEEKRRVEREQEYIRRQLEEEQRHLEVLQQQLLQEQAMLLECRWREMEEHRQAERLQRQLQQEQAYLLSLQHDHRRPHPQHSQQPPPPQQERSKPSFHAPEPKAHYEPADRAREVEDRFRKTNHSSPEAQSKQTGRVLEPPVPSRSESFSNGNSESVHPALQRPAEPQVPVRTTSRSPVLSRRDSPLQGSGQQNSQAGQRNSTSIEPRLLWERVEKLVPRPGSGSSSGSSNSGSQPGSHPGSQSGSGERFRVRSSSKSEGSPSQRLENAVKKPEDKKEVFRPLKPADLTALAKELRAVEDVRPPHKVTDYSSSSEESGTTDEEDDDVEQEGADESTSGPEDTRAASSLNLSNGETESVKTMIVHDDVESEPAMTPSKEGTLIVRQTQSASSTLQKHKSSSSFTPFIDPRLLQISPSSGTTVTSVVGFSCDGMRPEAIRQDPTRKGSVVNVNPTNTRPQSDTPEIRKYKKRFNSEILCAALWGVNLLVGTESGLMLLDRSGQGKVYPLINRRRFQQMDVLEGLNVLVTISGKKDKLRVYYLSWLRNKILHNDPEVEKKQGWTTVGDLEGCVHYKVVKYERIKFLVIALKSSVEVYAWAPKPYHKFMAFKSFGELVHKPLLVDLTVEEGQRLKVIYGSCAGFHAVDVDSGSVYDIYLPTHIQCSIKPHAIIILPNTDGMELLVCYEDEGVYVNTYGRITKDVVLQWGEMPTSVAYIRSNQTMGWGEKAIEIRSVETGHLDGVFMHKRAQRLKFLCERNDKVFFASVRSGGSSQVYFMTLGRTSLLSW
Test [5] addresses S-adenosylmethionine synthase isoform type-2 (Homo sapiens, UniProt P31153).
In test [6] the target is Maternal embryonic leucine zipper kinase (Homo sapiens, UniProt Q14680).
Test [7] addresses Hepatocyte growth factor receptor (Homo sapiens, UniProt P08581).
In test [8] the target is T2, Dynamin-like GTPase OPA1, mitochondrial (Homo sapiens, UniProt O60313).
T2 sequence (O60313 whole entry): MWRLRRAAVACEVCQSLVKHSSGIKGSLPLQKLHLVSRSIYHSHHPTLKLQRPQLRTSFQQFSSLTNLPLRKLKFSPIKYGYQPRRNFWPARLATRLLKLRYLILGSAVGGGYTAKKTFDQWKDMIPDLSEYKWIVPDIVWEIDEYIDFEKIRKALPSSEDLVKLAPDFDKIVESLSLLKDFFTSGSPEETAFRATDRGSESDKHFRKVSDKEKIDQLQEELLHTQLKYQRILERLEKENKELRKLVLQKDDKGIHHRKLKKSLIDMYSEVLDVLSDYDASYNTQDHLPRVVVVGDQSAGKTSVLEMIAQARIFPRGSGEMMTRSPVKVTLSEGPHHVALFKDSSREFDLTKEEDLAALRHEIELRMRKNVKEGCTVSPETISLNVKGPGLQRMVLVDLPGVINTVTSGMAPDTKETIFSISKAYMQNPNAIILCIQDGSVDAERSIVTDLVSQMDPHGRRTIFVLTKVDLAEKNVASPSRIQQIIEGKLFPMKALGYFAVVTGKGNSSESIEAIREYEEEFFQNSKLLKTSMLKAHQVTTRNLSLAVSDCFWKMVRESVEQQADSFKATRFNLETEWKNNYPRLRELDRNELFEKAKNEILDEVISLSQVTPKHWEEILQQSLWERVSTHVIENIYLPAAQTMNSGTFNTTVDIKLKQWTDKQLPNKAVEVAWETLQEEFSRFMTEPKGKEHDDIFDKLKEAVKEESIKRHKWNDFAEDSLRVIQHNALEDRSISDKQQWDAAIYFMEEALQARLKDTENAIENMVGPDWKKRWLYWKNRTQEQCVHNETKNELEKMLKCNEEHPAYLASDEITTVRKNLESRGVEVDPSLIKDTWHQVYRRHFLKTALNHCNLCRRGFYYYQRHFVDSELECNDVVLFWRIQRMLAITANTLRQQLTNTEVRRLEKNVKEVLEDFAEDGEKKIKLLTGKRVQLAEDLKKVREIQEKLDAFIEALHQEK

The target of test [9] is 5'-AMP-activated protein kinase catalytic subunit alpha-1 (Homo sapiens, UniProt Q13131).
5'-AMP-activated protein kinase catalytic subunit alpha-1, sequence (Q13131 whole entry): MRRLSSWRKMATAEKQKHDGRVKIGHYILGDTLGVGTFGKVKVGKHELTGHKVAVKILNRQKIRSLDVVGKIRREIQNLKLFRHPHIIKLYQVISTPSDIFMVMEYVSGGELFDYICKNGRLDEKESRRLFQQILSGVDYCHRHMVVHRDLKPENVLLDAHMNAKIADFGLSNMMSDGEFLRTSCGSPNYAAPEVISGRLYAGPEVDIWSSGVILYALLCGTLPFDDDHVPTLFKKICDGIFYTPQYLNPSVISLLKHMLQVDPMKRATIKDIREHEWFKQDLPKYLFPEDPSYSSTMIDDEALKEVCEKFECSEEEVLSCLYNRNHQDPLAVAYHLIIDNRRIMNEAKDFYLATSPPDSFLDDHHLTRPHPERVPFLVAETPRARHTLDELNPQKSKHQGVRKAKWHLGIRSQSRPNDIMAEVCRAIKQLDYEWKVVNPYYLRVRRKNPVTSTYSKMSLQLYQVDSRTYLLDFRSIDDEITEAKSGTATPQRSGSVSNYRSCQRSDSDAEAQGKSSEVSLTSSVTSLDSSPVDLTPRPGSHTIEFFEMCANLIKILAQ
In test [10] the target is Rho-associated protein kinase 1 (Homo sapiens, UniProt Q13464).
Rho-associated protein kinase 1, sequence (Q13464 whole entry): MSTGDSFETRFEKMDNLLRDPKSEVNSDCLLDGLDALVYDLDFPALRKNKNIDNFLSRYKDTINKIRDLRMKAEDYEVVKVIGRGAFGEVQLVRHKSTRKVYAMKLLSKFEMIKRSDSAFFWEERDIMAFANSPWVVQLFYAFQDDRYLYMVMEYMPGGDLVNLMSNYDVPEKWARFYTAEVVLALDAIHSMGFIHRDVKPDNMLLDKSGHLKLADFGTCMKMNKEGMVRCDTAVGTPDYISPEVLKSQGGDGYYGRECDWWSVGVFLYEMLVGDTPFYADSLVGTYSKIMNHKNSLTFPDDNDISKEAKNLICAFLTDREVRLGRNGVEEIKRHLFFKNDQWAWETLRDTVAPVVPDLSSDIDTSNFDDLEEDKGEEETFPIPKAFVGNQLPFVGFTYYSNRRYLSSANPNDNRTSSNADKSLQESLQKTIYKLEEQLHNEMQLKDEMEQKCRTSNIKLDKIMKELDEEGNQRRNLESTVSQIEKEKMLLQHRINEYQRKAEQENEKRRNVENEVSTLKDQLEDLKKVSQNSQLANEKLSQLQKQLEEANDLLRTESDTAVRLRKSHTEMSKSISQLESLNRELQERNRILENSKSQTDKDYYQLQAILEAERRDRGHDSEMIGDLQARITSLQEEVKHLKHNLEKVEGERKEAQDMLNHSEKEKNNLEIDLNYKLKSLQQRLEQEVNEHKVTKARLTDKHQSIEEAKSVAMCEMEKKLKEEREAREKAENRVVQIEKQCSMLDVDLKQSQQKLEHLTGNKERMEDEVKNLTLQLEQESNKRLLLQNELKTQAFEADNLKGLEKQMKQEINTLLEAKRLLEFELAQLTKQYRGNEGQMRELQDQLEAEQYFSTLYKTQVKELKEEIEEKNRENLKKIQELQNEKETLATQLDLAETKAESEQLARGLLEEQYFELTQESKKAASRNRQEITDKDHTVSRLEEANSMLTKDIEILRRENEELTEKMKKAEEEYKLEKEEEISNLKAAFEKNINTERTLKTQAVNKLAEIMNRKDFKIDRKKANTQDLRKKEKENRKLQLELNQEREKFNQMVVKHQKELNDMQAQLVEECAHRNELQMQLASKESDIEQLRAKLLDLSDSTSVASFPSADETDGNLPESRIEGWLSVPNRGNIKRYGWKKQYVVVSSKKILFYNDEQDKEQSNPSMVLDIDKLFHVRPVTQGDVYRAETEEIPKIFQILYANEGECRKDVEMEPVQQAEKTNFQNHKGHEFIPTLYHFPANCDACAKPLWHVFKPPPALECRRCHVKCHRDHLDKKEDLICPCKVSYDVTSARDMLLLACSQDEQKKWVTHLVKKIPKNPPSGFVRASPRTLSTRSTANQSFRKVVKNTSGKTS
Test [11] has as its target Ribosomal protein S6 kinase alpha-6 (Homo sapiens, UniProt Q9UK32).
The target of test [12] is STE20-like serine/threonine-protein kinase (Homo sapiens, UniProt Q9H2G2).
Test [13] concerns the target Proto-oncogene tyrosine-protein kinase Src (Homo sapiens, UniProt P12931).
Test [14] has as its target Serine/threonine-protein kinase 26 (Homo sapiens, UniProt Q9P289).
The target in test [15] is T3, Non-receptor tyrosine-protein kinase TNK1 (Homo sapiens, UniProt Q13470).
T3 sequence (Q13470 whole entry): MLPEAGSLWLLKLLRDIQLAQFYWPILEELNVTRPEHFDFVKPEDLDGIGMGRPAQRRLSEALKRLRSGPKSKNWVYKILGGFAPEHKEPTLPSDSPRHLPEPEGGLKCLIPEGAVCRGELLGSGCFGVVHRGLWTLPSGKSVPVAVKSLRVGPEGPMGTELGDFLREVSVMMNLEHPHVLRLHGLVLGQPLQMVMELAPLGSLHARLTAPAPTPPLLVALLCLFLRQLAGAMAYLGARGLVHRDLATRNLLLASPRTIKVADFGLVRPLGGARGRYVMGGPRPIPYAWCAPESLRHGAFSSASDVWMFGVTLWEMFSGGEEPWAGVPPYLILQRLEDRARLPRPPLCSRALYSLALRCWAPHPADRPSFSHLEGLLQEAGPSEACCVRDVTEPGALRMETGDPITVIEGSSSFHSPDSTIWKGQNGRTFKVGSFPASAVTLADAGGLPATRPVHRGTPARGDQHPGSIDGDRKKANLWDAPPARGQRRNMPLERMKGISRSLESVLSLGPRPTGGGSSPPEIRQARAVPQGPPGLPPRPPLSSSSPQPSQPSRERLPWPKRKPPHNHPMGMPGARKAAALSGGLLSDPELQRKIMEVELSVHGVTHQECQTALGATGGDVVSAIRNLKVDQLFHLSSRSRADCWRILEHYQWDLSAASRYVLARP

The target in test [16] is Non-receptor tyrosine-protein kinase TYK2 (Homo sapiens, UniProt P29597).

Cyclin-dependent kinase 17, sequence (Q00537 whole entry): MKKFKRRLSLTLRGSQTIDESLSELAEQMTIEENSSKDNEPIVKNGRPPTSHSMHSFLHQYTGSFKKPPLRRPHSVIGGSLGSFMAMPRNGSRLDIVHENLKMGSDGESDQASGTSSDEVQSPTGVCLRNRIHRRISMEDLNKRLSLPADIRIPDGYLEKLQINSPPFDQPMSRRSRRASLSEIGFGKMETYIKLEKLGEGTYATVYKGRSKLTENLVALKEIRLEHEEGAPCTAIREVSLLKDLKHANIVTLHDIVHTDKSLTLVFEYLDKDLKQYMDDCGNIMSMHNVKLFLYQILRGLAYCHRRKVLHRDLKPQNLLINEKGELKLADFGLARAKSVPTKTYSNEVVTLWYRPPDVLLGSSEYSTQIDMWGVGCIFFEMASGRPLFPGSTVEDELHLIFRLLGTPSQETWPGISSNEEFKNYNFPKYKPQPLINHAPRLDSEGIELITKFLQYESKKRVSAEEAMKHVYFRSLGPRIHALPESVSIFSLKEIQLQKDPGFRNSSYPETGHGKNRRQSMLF
Serine/threonine-protein kinase 26, sequence (Q9P289 whole entry): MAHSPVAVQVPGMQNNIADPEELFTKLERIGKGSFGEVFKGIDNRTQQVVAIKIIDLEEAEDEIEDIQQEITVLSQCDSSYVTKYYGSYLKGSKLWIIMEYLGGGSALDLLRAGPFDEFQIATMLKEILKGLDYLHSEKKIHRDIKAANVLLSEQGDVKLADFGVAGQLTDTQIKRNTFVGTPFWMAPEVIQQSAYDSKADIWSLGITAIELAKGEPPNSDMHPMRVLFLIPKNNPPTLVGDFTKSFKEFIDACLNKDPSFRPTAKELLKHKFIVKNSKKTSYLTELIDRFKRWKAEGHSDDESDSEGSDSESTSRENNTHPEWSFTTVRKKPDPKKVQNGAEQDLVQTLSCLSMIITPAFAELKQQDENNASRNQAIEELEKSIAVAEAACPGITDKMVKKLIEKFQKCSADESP
S-adenosylmethionine synthase isoform type-2, sequence (P31153 whole entry, canonical isoform): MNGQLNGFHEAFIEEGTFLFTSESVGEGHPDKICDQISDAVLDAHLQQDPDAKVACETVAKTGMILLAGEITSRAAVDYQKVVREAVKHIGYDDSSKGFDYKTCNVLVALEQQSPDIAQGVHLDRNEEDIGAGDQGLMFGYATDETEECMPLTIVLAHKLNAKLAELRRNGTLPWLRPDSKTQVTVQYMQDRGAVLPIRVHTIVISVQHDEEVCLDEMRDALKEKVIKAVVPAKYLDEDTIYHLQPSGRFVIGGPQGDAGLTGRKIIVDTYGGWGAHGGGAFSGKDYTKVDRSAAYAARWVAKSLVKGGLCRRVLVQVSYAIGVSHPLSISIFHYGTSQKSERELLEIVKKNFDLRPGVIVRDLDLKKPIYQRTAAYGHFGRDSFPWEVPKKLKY

For the compound `CCNC(=O)C#Cc1ccc2c(c1)NC(=O)/C2=C(\Nc1ccc(CN(C)C)cc1)c1ccccc1`, the Kd (on Adenosine kinase; in test [1]; in [2]; in test [3]; on Scaffold protein ILK; in test [4]) was > 30 µM (inactive) in each case. Further, the Kd (usually the equilibrium constant for the complex coming apart) is > 30 µM (inactive) in test [5]; 0.918 µM (active) in test [6]; > 30 µM (inactive) in test [7]; > 30 µM (inactive) in [8]; 3.05 µM (active) in test [9]; > 30 µM (inactive) in test [10]. Moreover, the Kd in test [11] is > 30 µM (inactive); in [12], 1.49 µM (active); in test [13] it was 0.491 µM (active); in [14], > 30 µM (inactive); in test [15] it was > 30 µM (inactive); in test [16] it was > 30 µM (inactive).
For the compound `C=CC(=O)N1CCC[C@H](n2c(=O)n(-c3ccc(Oc4ccccc4)cc3)c3c(N)ncnc32)C1`, the Kd (at Adenosine kinase; in test [1]; in test [2]; in [3]; on Scaffold protein ILK; in test [4]) was > 30 µM (inactive) in each case. Also, the Kd in test [5], in [6], in test [7], in test [8], in test [9] and in test [10] was > 30 µM (inactive) in each case. Besides, the Kd was > 30 µM (inactive) in [11]; > 30 µM (inactive) in [12]; 0.004 µM in test [13]; > 30 µM (inactive) in test [14]; > 30 µM (inactive) in test [15]; > 30 µM (inactive) in test [16].
Consider `Cn1cnc2c(F)c(Nc3ccc(Br)cc3F)c(C(=O)NOCCO)cc21` [BINIMETINIB], for which the Kd (at Adenosine kinase; in test [1]; in test [2]; in test [3]; at Scaffold protein ILK; in test [4]) was > 30 µM (inactive) each time. Moreover, the Kd in test [5], in test [6], in [7], in [8], in test [9] and in test [10] was > 30 µM (inactive) throughout. Besides, the Kd in test [11], in [12], in test [13], in [14], in test [15] and in test [16] was > 30 µM (inactive) in each case.
Take `CCn1c(C(=O)N(C2CC2)C2CC2)cc2c3c(ncn3C)c(Nc3cc(C)n(C)n3)nc21` [BMS-911543]: the Kd (on Adenosine kinase; in test [1]; in test [2]; in test [3]; at Scaffold protein ILK; in test [4]) was > 30 µM (inactive) throughout. In addition, the Kd in test [5], in test [6], in test [7], in [8], in test [9] and in test [10] was > 30 µM (inactive) each time. The Kd in [11], in test [12], in test [13], in test [14], in test [15] and in test [16] was > 30 µM (inactive) throughout.

For the origin of these results see ChEMBL document CHEMBL3991601, “The target landscape of clinical kinase drugs” (Science, 2017).
